Columns and labels:
M. catarrhalis TW2 = test: Dose response deferred antagonism assay, producer M18; type: cell-based
[1] = test system: pathogens implicated in the ENT and Skin infections; test: Deferred antagonism assay with other S. salivarius producer strains; type: cell-based
Protocol: Method: Preparation of solid culture media—CABCa agar plates were prepared with or without either 2.5% w/w raffinose or 0.5% w/w galactose by the addition of 0.5% (w/v) calcium carbonate to solid CAB agar in bottles and then melted by autoclaving at 110° C. for 10 mins. Once cooled, filter sterilised solutions of the saccharides or distilled water were added and mixed and then 20 ml pipetted into petri dishes.
Preparing S. salivarius producer suspension, about 6 colonies of each S. salivarius strain were added into separate tubes containing 1 ml THB and mixed well.
Deferred antagonism assay—100 μl of S. salivarius producer suspensions was dispensed onto CABCa plates supplemented with or without raffinose or galactose as droplets in a vertical line down the middle of the test plate. This suspension was then spread as 1.2 cm streak down the middle of the plate using a cutdown plastic spreader. Plates were incubated for 18 hours at 37° C., 5% CO2 in air.
After incubation, the bacterial growth was then removed from the agar plate using a sterile cotton swab. The pH of the producer streak was then adjusted by placing a 1 cm wide strip of filter paper soaked in 0.5M sodium carbonate pH 11 onto the agar plate to buffer the acid and adjust the pH up to around pH 6.5-7.5.
Plates were surface sterilised with chloroform vapour for 30 minutes, followed by air drying for 30 minutes.
Bacterial indicator suspensions were prepared by adding 3-9 colonies (depending on the size) of each strain into separate tubes containing 3 ml THB. These suspensions were then swabbed across the agar plate perpendicular to the producer streak and then the agar plate was incubated for a further 18 hours at 37° C., 5% CO2 in air.

salQ = test: qPCR relative gene expression in K12 grown on CABCa agar; type: cell-based, S. salivarius K12
Protocol: (§1) Method: CABCa agar plates were prepared either with or without 2.5% w/w raffinose, 0.5% w/w galactose, combined 2.5% w/w raffinose and 0.5% w/w galactose, 0.5% w/w glucose or 2.5% w/w glucose by the addition of 0.5% (w/v) calcium carbonate to solid CAB agar in bottles and then melted by autoclaving at 110° C. for 10 mins. Once cooled, filter sterilised solutions of the saccharides or distilled water were added and mixed and then 20 ml pipetted into petri dishes.
(§2) A S. salivarius K12 raw ingredient suspension was prepared in PBS containing approx. 1×10^8cfu/ml. […] of this suspension was spread evenly onto control and test agar plates. Plates were incubated at 37° C. with 5% CO2 for approx, 19 hrs.
(§3) Bacterial growth from each plate was collected using a sterile cotton swab and resuspended into 1 ml PBS in a screw capped tube. The bacterial cells were then pelleted by centrifugation at 13,000 rpm for 1 minute at 4° C. The supernatant was removed, and the cell pellet was resuspended in 1 ml of TRIzol reagent. The bacterial cell suspension was transferred into a 2 ml screw-capped tube containing 0.1 mm Zirconia/silicon beads. These tubes were then vortexed for 5 minutes at the highest speed to bead beat the bacterial cells to lyse them. The tubes were placed on ice for 1 minute and then re-bead beated again on the vortex for 5 minutes. The tubes were then frozen at −20° C.
(§4) The cDNA samples from K12 raw ingredient grown on the CABCa control plates and CABCa supplemented with the various saccharides were then analysed by qPCR for the levels of gene expression of the following genes: salA, salB, salQ and ureC.
(§5) 10 μl qPCR reactions were prepared containing 2 μl of cDNA, 5 μl SYBR green master mix, 0.5 μl forward primer, 0.5 μl reverse primer and nuclease free water up to 10 μl. The dilution of cDNA in each qPCR was optimised with each primer set.
(§6) qPCR method consisted of the following cycles: Hold Stage: 2 mins at 50° C. followed by 10 mins at 95° C.; PCR Stage: 15 secs at 95° C. followed by 1 min at 60° C.; Melt Curve Stage: 15 secs at 95° C. followed by 1 min at 60° C. followed by 15 secs at 95° C.
(§7) To analyse the relative expression levels the 2^−ΔΔCt method was used to determine the relative fold gene expression level comparing the different sugars to a CABCa plate control. The reference gene used for this analysis was gyrA.

ureC = test: as above; type: cell-based, S. salivarius K12
Protocol: as §1, §2, §3, §4, §5, §6, §7

salA = test: as above; type: cell-based, S. salivarius K12
Protocol: as §1, §2, §3, §4, §5, §6, §7

SMILES	increase in zone of inhibition M. catarrhalis TW2 (M. catarrhalis TW2; 1.0% (w/v) galactose) [mm]	increase in zone of inhibition M. catarrhalis TW2 (M. catarrhalis TW2; 1.5% (w/v) galactose) [mm]	induction of inhibitory effect in other S. salivarius strains ([1]; 0.5% w/w galactose, compared with K12 and M18)	salQ upregulated relative to a no sugar control (salQ; 0.5% w/w sugar in CABCa agar) [fold]	upregulation in urease (ureC) expression (ureC; 0.5% w/w sugar in CABCa agar) [fold]	increase in gene expression of salA relative to no sugar control (salA; 0.5% w/w sugar in CABCa agar) [fold]	change in zone of inhibition size M. catarrhalis TW2 (M. catarrhalis TW2; 1.5% (w/v) raffinose) [mm]	induction of inhibitory effect in other S. salivarius strains, exception ATCC 7073 ([1]; 2.5% w/w raffinose, compared with K12 and M18)	antimicrobial activity of S. salivarius strain ATCC 7073 ([1]; supplemented with 2.5% w/w raffinose)	salQ upregulated relative to a no sugar control (salQ; 2.5% w/w sugar in CABCa agar) [fold]	upregulation in urease (ureC) expression (ureC; 2.5% w/w sugar in CABCa agar) [fold]	increase in gene expression of salA relative to no sugar control (salA; 2.5% w/w sugar in CABCa agar) [fold]
O=C[C@H](O)[C@@H](O)[C@@H](O)[C@H](O)CO [Galactose, D-galactose]	13	23	does not induce the same inhibitory effect	205	224	~12000	–	–	–	–	–	–
OC[C@H]1O[C@H](OC[C@H]2O[C@H](O[C@]3(CO)O[C@H](CO)[C@@H](O)[C@@H]3O)[C@H](O)[C@@H](O)[C@@H]2O)[C@H](O)[C@@H](O)[C@H]1O [Raffinose, D-(+) Raffinose pentahydrate]	–	–	–	–	–	–	31	does not induce same inhibitory effect	antimicrobial activity	93	234	~5000

— US20240390434A1, “PROBIOTIC ENHANCERS AND USES THEREOF” (Blis Technologies Limited, priority 2021, published 2024)
